One block for each compound: values may come before it.
What was measured:
Antithrombin-III [1] = molecular target: T1, Antithrombin-III (Homo sapiens, UniProt P01008); assay: (§1) Antithrombin III (ATIII)-mediated anti-Xa activity was determined
[2] = In vitro half life in rat; conditions: in vivo
Antithrombin-III [3] = molecular target: T1, Antithrombin-III; assay: In vitro antithrombin III (ATIII)-mediated anti-Xa activity was determined
Prothrombin = Prothrombin (Homo sapiens, UniProt P00734); assay: In vitro anti-thrombin activity was determined
Antithrombin-III [4] = molecular target: T1, Antithrombin-III; assay: as §1; remark: listed apart in the source

T1 sequence (P01008 whole entry): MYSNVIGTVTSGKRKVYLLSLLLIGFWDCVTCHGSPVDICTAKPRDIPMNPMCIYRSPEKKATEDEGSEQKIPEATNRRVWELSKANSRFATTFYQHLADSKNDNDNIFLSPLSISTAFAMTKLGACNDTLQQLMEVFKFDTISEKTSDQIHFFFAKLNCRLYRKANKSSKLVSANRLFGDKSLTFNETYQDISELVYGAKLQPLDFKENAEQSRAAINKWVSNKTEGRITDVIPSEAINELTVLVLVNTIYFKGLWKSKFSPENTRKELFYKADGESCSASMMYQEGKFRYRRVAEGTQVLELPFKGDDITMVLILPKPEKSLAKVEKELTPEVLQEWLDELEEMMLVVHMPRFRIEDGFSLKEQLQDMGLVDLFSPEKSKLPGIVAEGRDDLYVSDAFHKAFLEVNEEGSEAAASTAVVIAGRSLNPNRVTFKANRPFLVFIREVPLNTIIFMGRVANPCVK

Activity (Antithrombin-III [1]): 1160 U mg-1
Structure (SMILES): CO[C@@H]1OC(COS(=O)(=O)O)[C@H](O[C@@H]2OC(C(=O)O)[C@H](O[C@@H]3OC(COS(=O)(=O)O)[C@H](O[C@@H]4OC(C(=O)O)[C@H](O[C@@H]5OC(COS(=O)(=O)O)[C@@H](O)[C@@H](OS(=O)(=O)O)C5OS(=O)(=O)O)[C@@H](OC)C4OS(=O)(=O)O)[C@@H](OS(=O)(=O)O)C3OS(=O)(=O)O)[C@@H](OC)C2OS(=O)(=O)O)[C@@H](OS(=O)(=O)O)C1OS(=O)(=O)O (stereo not given in full)

half-life [2]: 90 min
Activity (Antithrombin-III [3]): 885 U mg-1
IC50 (Prothrombin): 350 nM
Structure (SMILES): CO[C@H]1O[C@H](COS(=O)(=O)O)[C@@H](O[C@@H]2O[C@@H](C(=O)O)[C@@H](O[C@H]3O[C@H](COS(=O)(=O)O)[C@@H](O[C@@H]4O[C@H](C(=O)O)[C@@H](O[C@H]5O[C@H](COS(=O)(=O)O)[C@@H](OCCOCCOCCOCCNC(=O)c6ccc(NC(=O)CSC[C@H](NS(=O)(=O)c7ccc8ccccc8c7)C(=O)NC(Cc7ccc(C(=N)N)cc7)C(=O)N7C=CCCC7)cc6)[C@H](OS(=O)(=O)O)[C@H]5OS(=O)(=O)O)[C@H](OC)[C@H]4OS(=O)(=O)O)[C@H](OS(=O)(=O)O)[C@H]3OS(=O)(=O)O)[C@H](OC)[C@H]2OS(=O)(=O)O)[C@H](OS(=O)(=O)O)[C@H]1OS(=O)(=O)O (stereo not given in full)

IC50 (Antithrombin-III [4]): 570 nM
Structure (SMILES): N=C(N)c1ccc(C[C@@H](NC(=O)CNS(=O)(=O)c2ccc3ccccc3c2)C(=O)N2CCCCC2)cc1

Source: ChEMBL document CHEMBL1131796, “Design and synthesis of a novel synthetic NAPAP-penta-saccharide conjugate displaying a dual antithrombotic action” (Bioorg Med Chem Lett, 1999)
